Calls of active or inactive are those of the source. How the calls were made is not given here.

Peptidyl-prolyl cis-trans isomerase FKBP1A (Homo sapiens), sequence (P62942 whole entry, looked up): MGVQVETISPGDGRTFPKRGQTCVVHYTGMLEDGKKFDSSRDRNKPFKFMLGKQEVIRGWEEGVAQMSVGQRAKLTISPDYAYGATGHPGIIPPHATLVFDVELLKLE

The assay addresses Peptidyl-prolyl cis-trans isomerase FKBP1A (Homo sapiens) (UniProt P62942). The assay is described as follows: FKBP12 binders, biophysical, NMR detection (AID 608). Particulars: NMR binding, purified FKBP12.
`CSc1nc2nccc(N)n2n1`: the Kd (in general, a measure of binding affinity in units of concentration) is > 4 mM (inactive).

As for `OC[C@@H]1CCCN2CCCC[C@H]12`, the Kd is > 4 mM (inactive).

For `NCc1ccc2c(c1)CCO2`, the Kd is > 4 mM (inactive).

Take `NC(=O)c1ccccc1NC(=O)c1cccnc1`: the Kd is > 4 mM (inactive).

On to `COCC(=O)Nc1ccc(F)cc1F`, for which the Kd is > 4 mM (inactive).

`CC(=O)O[C@H]1CCC2(C)C3=C(CCC2C1(C)C)[C@]1(C)CCC(C(C)CCC=C(C)C)[C@@]1(C)CC3` (stereo partly drawn): the Kd was > 4 mM (inactive).

In the case of `COc1ccc(Cl)cc1NS(=O)(=O)N1CCCCC1`, the Kd entry is “inactive”.

Take `Cc1cc(C(=O)Nc2ccc3c(c2)OCO3)cs1`: the Kd was > 4 mM (inactive).

In the case of `CC(=O)n1nc(-c2cccnc2)nc1N`, the Kd is > 4 mM (inactive).

`NC(=O)C1CCN(S(=O)(=O)c2ccccc2)CC1`: the Kd is > 4 mM (inactive).

With `CS(=O)(=O)N/N=C/c1cccs1`, the Kd was > 4 mM (inactive).

As for `O=C(Cn1c(-c2cscn2)nc2ccccc21)Nc1ccccc1F`, the Kd was > 13.6 mM (inactive).

Turning to `O=c1nc(N2CCOCC2)nc2n1CCO2`, the Kd is > 4 mM (inactive).

Regarding `CC1=C2C(O)C(=O)OC3CC4C(C)(C)C(=O)C=C[C@]4(C)C(CC1)[C@]23C` (stereo partly drawn), the Kd was > 4 mM (inactive).

Consider `CC(=O)Oc1ccc2c(c1)c(C(C)=O)c(C)n2C`, for which the Kd was > 4 mM (inactive).

As for `Oc1ccccc1-c1nnco1`, the Kd is > 4 mM (inactive).

In the case of `CCCNC(=O)CSc1nnc(C)s1`, the Kd was > 4 mM (inactive).

As for `Cc1cc(C)n(/N=C\c2cccs2)c(=O)c1C(N)=O`, the Kd is > 4 mM (inactive).

For the compound `CC12CNCC(C)(CNC1)C2O` (stereo not drawn), the Kd was > 4 mM (inactive).

In the case of `CP(C)(=O)CCC(=O)O`, the Kd was > 4 mM (inactive).

Turning to `COc1cccc(-c2nn(-c3ccccc3)cc2CO)c1`, the Kd is > 4 mM (inactive).

Regarding `Cn1c(SCC(N)=O)nnc1-c1cccnc1`, the Kd was > 4 mM (inactive).

Turning to `OCc1nccn1Cc1ccccc1`, the Kd was > 4 mM (inactive).

`C=C[C@@H](C1=CC(=O)C(OC)=C(OC)C1=O)c1ccccc1`: the Kd was > 4 mM (inactive).

`CCC(=O)Nc1ccccc1NC(C)=O`: the Kd was > 4 mM (inactive).

For the compound `O=S1(=O)CCC(N2CCCCC2)C1` (stereo not drawn), the Kd is > 4 mM (inactive).

With `COc1ccc(C)cc1S(N)(=O)=O`, the Kd was > 4 mM (inactive).

On to `Nc1ccccc1C(=O)N1CCOCC1`, for which the Kd is > 4 mM (inactive).

Regarding `O=C(O)C1Cc2ccccc2O1` (stereo not drawn), the Kd is > 4 mM (inactive).

For the compound `COc1ccccc1NC(=O)c1cc[n+]([O-])cc1`, the Kd was > 4 mM (inactive).

As for `O=C(O)C1CCN(C(=O)c2cccs2)CC1`, the Kd is > 4 mM (inactive).

In the case of `NC12CC3CC(C1)CC(CC(=O)O)(C3)C2`, the Kd is > 4 mM (inactive).

For `CC1(C)O[C@H]2CC(=O)OC[C@]23[C@H]2CC[C@@]4(C)[C@H](c5ccoc5)OC(=O)[C@H]5O[C@]54[C@]2(C)C(=O)C[C@@H]13`, the Kd was > 4 mM (inactive).

Turning to `CC(C)Nc1ncnc2c1nnn2C`, the Kd was > 4 mM (inactive).

For `NC(=O)CCn1ncc2ccccc21`, the Kd is > 4 mM (inactive).

In the case of `O=C(O)Cn1nc(-c2ccccc2)c2ccccc2c1=O`, the Kd was > 4 mM (inactive).

With `Nc1c2c3c(sc2nc(=O)n1N)CCCC3`, the Kd is > 4 mM (inactive).

For `COc1ccc(N/C(N)=N\c2nc(C)cc(C)n2)cc1`, the Kd was > 4 mM (inactive).

In the case of `C[C@@H]1OC(O[C@H]2[C@H](OC(=O)[C@]34CCC(C)(C)CC3C3=CCC5[C@@]6(C)CC[C@H](OC7O[C@@H](C)[C@H](O[C@@H]8OC[C@@H](O)[C@H](O)[C@H]8O)[C@@H](O)[C@H]7O)C(C)(C)C6CC[C@@]5(C)[C@]3(C)CC4O)OC[C@H](O)[C@H]2O)[C@H](O)[C@H](O)[C@H]1O[C@@H]1O[C@H](CO)[C@@H](O)[C@H](O)[C@H]1O` (stereo partly drawn), the Kd is > 4 mM (inactive).

Regarding `O=C(O)C1CC(=O)N(Cc2ccco2)C1` (stereo not drawn), the Kd is > 4 mM (inactive).

With `Cc1ccc2[nH]c3nc(=S)[nH]nc3c2c1`, the Kd is > 4 mM (inactive).

Take `CC(=O)O[C@@H]1CC2C(C)(C)C(=O)C=C[C@]2(C)C2CC[C@]3(C)C(=CC(=O)O[C@H]3c3ccoc3)[C@@]21C` (stereo partly drawn): the Kd was > 4 mM (inactive).

Regarding `COc1cnn(Cc2ccccc2)c(=O)c1Cl`, the Kd was > 4 mM (inactive).

For the compound `O=C1CCC(=O)N1c1cccc([N+](=O)[O-])c1`, the Kd was > 4 mM (inactive).

`O=C(CSc1cccc2cccnc12)N1CCCC1`: the Kd is > 4 mM (inactive).

Turning to `O=C1CCC(=O)N1c1ccc(F)cc1`, the Kd is > 4 mM (inactive).

Consider `Cn1nc(-c2cccs2)cc1N`, for which the Kd is > 4 mM (inactive).

`Cc1cc(=O)[nH]c(N2CCN(Cc3ccccc3)CC2)n1`: the Kd is > 4 mM (inactive).

Consider `CCOC(=O)C1C(=O)C2CCN1CC2` (stereo not drawn), for which the Kd is > 4 mM (inactive).

With `COc1ccc(/C=C2\SC(N)=NC2=O)cc1`, the Kd is > 4 mM (inactive).

On to `Nc1ccccc1-c1nc2ccccc2[nH]1`, for which the dissociation constant (Kd) was 0.286 mM.

For `O=C(/C=C/c1ccccc1)NC1CCS(=O)(=O)C1` (stereo not drawn), the Kd was > 4 mM (inactive).

As for `CN1CCN(Cc2cccnc2)CC1`, the Kd is > 4 mM (inactive).

For `CCCNC(CC(=O)Nc1cccnc1)C(=O)O` (stereo not drawn), the Kd was > 4 mM (inactive).

Turning to `COc1ccc(Cl)cc1-c1n[nH]c(=S)n1C`, the Kd was > 4 mM (inactive).

As for `O=C(c1ccncc1)c1ccc(Br)cc1`, the Kd was > 4 mM (inactive).

For the compound `COc1cc(/C=C2/NC(=S)NC2=O)cc(Cl)c1O`, the Kd was > 4 mM (inactive).

`Cc1cc(C)n(-c2ccc(Cl)nn2)n1`: the Kd was > 4 mM (inactive).

For the compound `O=C(O)C1CC(=O)N(Cc2ccc(F)cc2)C1` (stereo not drawn), the Kd was > 4 mM (inactive).

In the case of `OCC1CCCN2CCCCC12` (stereo not drawn), the Kd was > 4 mM (inactive).

As to `CN1CCc2c(sc(N)c2C#N)C1`, the Kd was > 4 mM (inactive).

`Nc1nnc(-c2ccncc2)s1`: the Kd was > 4 mM (inactive).

On to `N#Cc1c[nH]n2c(=O)cc(Cc3ccccc3)nc12`, for which the Kd was > 4 mM (inactive).

For `Cc1cc2cc3c(C)cc(=O)oc3c(C)c2o1`, the Kd was > 4 mM (inactive).

In the case of `Cn1c(=O)n(CC(=O)N2CCOCC2)c2ccccc21`, the Kd was > 4 mM (inactive).

As to `Cn1nnc2cc(C(=O)O)ccc21`, the Kd is > 4 mM (inactive).

In the case of `Fc1ccc(CN2CCCNCC2)cc1`, the Kd was > 4 mM (inactive).

Regarding `CC(=O)Nc1cc(O)cc(O)c1`, the Kd was > 4 mM (inactive).

Take `O=C1NC(=O)C(=Cc2cccs2)C(=O)N1`: the Kd was > 4 mM (inactive).

With `CC1CN(C(=O)CSc2ccccc2)CC(C)O1` (stereo not drawn), the Kd result is “inactive”.

On to `COc1ccc2c(c1)OC1(O)COc3cc(OC)c(OC)cc3C1=C2` (stereo not drawn), for which the Kd was > 4 mM (inactive).

Take `CCCOn1nnnc1-c1ccccc1`: the Kd was > 4 mM (inactive).

In the case of `C[C@H]1[C@H](C)CC[C@]2(C(=O)O)CC[C@]3(C)C(=CCC4[C@@]5(C)C[C@@H](O)[C@H](O)[C@@](C)(CO)C5[C@H](O)C[C@]43C)[C@H]12` (stereo partly drawn), the Kd was > 4 mM (inactive).

Consider `O=C1NC(=O)/C(=C\c2ccco2)S1`, for which the Kd was > 4 mM (inactive).

`O=C(Nn1cnnc1)c1csc2ccccc12`: the Kd was > 4 mM (inactive).

`CC1=C/C(=C\c2c(O)[nH]c(=O)[nH]c2=O)C(C)=N1`: the Kd is > 4 mM (inactive).

Regarding `O=C(O)CCCC(=O)Nc1nccs1`, the Kd is > 4 mM (inactive).

As for `O=c1[nH]cc(S(=O)(=O)N2CCc3ccccc32)c(=O)[nH]1`, the Kd was > 4 mM (inactive).

As to `Cc1cc(OCC(=O)N2CCOCC2)ccc1C(C)C`, the Kd entry is “inactive”.

Regarding `CN1C(=O)CC[C@H]1c1cccnc1`, the Kd was > 4 mM (inactive).

Turning to `CC1CCCN(C/C(O)=C(\C#N)c2nc3ccccc3[nH]2)C1` (stereo not drawn), the Kd was > 4 mM (inactive).

Take `Cc1nccc2c1[nH]c1ccccc12`: the Kd is > 4 mM (inactive).

Turning to `CC(=O)Nc1cc(S(=O)(=O)N(C)C)ccc1Cl`, the Kd was > 4 mM (inactive).

Take `O=C(Nc1ccc(O)cc1)N1CCOCC1`: the Kd was > 4 mM (inactive).

For `O=C(O)c1ccc(CN2CCCCC2)o1`, the Kd is > 4 mM (inactive).

With `CC(CCC(=O)O)[C@H]1CCC2C3CC[C@@H]4C[C@H](O)CC[C@]4(C)C3C[C@H](O)[C@@]21C` (stereo partly drawn), the Kd is > 4 mM (inactive).

Take `O=C1CN(c2ccccc2)CC(=O)N1`: the Kd was > 4 mM (inactive).

Regarding `Cc1cc(NC(=O)Cc2c(F)cccc2Cl)no1`, the Kd was > 4 mM (inactive).

For the compound `Cc1onc(-c2c(Cl)cccc2Cl)c1C(N)=O`, the Kd was > 4 mM (inactive).

With `COCc1nn2c(N)c(C#N)cnc2c1-c1ccccc1`, the Kd was > 4 mM (inactive).

In the case of `COC[C@]12CN(C=O)C3[C@@H]4[C@H](OC)C1[C@]3(C1CC3(O)C(OC)C(O)C4(OC(C)=O)C1C3OC(=O)c1ccccc1)[C@@H](OC)C[C@H]2O` (stereo partly drawn), the Kd was > 4 mM (inactive).

Turning to `COc1ccc(-c2cc(=O)c3c(OC)c(OC)c(OC)c(OC)c3o2)cc1OC`, the Kd is > 4 mM (inactive).

Consider `Cc1scc(C(=O)Nc2ccon2)c1-c1ccccc1`, for which the Kd was > 4 mM (inactive).

Consider `CCOc1ccc(OCC(=O)N2CCOCC2)cc1`, for which the Kd result is “inactive”.

Regarding `C[C@H]1O[C@@H](O[C@H]2[C@@H](O)C[C@H](O[C@H]3[C@@H](O)C[C@H](O[C@H]4CC[C@]5(C)C6CC[C@]7(C)[C@@H](C8=CC(=O)OC8)CC[C@]7(O)C6CC[C@@H]5C4)O[C@@H]3C)O[C@@H]2C)C[C@H](O)[C@@H]1O` (stereo partly drawn), the Kd was > 4 mM (inactive).

`O=C(NCc1cccs1)c1ccc2c(c1)OCCO2`: the Kd was > 4 mM (inactive).

For the compound `CC1(C)Cc2c(C#N)c(N)n(-c3ccccc3)c(=O)c2CO1`, the Kd is > 4 mM (inactive).

In the case of `CC(CO)NC(=O)C1C=C2c3cccc4[nH]cc(c34)C[C@H]2N(C)C1` (stereo partly drawn), the Kd was > 4 mM (inactive).

Values taken from PubChem BioAssay AID608 (Sanford-Burnham Center for Chemical Genomics, 2007).
